From BigSolDB 2.1

CCCc1nc(C(C)(C)O)c(C(=O)OCC)n1Cc1ccc(-c2ccccc2-c2nnnn2C(c2ccccc2)(c2ccccc2)c2ccccc2)cc1
solubility (mole fraction)
Settings	278.15 K	283.15 K	288.15 K	293.15 K	298.15 K	303.15 K	308.15 K	313.15 K	318.15 K
in DMAc	0.00501	0.00574	0.00655	0.00756	0.00872	0.01	0.0114	0.0129	0.0148
in DMF	0.00117	0.00148	0.00186	0.00229	0.0028	0.00337	0.004	0.00471	0.00553
in acetone	0.000617	0.000854	0.00115	0.00154	0.00197	0.00242	0.0029	0.0035	0.00417
in acetonitrile	0.00027	0.000315	0.000373	0.00044	0.000513	0.000597	0.000689	0.00079	0.000901
in cyclohexanone	0.00729	0.00844	0.00967	0.0112	0.0128	0.0147	0.0166	0.0187	0.0211
in ethanol	8.35e-05	0.000102	0.000124	0.000147	0.000174	0.000206	0.000239	0.000277	0.000318
in ethyl acetate	0.00177	0.0021	0.00256	0.00308	0.00372	0.00445	0.00523	0.00607	0.00699
in isobutanol	0.00012	0.000145	0.000177	0.000216	0.000255	0.000302	0.000352	0.000408	0.000472
in isopropanol	5.42e-05	6.87e-05	8.5e-05	0.000102	0.000122	0.000144	0.00017	0.000197	0.000228
in methanol	4.18e-05	5.35e-05	6.64e-05	8.11e-05	9.59e-05	0.000112	0.000131	0.000152	0.000175
in n-butanol	0.000177	0.000211	0.000253	0.000298	0.000348	0.000401	0.000458	0.000521	0.000588
in n-propanol	0.000144	0.000175	0.000213	0.000253	0.000298	0.000346	0.000397	0.000454	0.000519
in toluene	0.00257	0.0032	0.00403	0.00503	0.00608	0.00738	0.00882	0.0104	0.0124
